# Measurements as given in paper PMC9837035 (Nature Communications, 2023).
# Several values for one entry are separate records, joined by “and”; a condition that tells them apart may be missing. Equal values may be shown once. Read-outs that look alike come from different tables or passages of the source.
# Legend:
# [1] = system: β- and γ-globin genes in HUDEP-2 cells; assay: RT-qPCR of β- and γ-globin in HUDEP-2 cells; type: cell-based, human
# Outline: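 Total RNA reverse-transcribed to cDNA, then target transcripts quantified by SYBR Green real-time qPCR. Expression normalized to GAPDH as reference gene.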
# [2] = system: β- and γ-globin mRNAs in CD34+-derived cells; assay: RT-qPCR of β- and γ-globin in CD34+-derived cells; type: cell-based, human
# Description: HUDEP-2 cells and HiDEP-1 cells were grown in Stemline II Hematopoietic Stem Cell Expansion Medium (Sigma) supplemented with 50 ng/mL recombinant stem cell factor (SCF; R&D systems), 3 IU/mL recombinant erythropoietin (EPO; Kyowa Kirin), 1 μM dexamethasone (Dex; Sigma), and 1 μg/mL doxycycline (Sigma). A total of 1 × 10^5 human CD34^+ progenitor cells derived from bone marrow or peripheral blood (Lonza) were cultured on 35-mm dishes (BD Falcon) in StemSpan SFEMII medium with 50 ng/mL SCF, 5 IU/mL EPO, and 10 ng /mL interleukin 3 (IL-3; R&D systems). The medium was changed on day 4 to SCF, EPO, and 1 μM Dex, and the cells were transferred to 60-mm dishes (BD Falcon). Seven days after the onset of differentiation, cells were counted and 1 × 10^6 cells were re-plated on 100-mm dishes (BD Falcon) with SCF, EPO, and Dex. The rat myoblast cell line H9c2, HEK293T, and PLAT-E cells were maintained in Dulbecco’s modified Eagle’s medium (Thermo Fisher Scientific) supplemented with 10% heat-inactivated fetal bovine serum (FBS) and penicillin/streptomycin. All cells were cultured at 37 °C under 5% CO2.
# (§1) Total cellular RNA was prepared using the Tissue Total RNA Mini Kit (FAVORGEN), and cDNA was synthesized using ReverTra Ace Master Mix (TOYOBO). Expression of target genes was analyzed using THUNDERBIRD SYBR qPCR Mix (TOYOBO) on a CFX Connect Real Time System (Bio-Rad). The qPCR data were acquired on CFX Maestro (Bio-Rad). Primers are listed in Supplementary Table 10. GAPDH was used as a reference. Primers were purchased from INTEGRATED DNA TECHNOLOGIES or FASMAC.
# [3] = system: BGLT3-knockdown HUDEP-2 cells; assay: RT-qPCR of BGLT3, β- and γ-globin in BGLT3-knockdown HUDEP-2 cells; type: cell-based, human; conditions: for induction of γ-globin in BGLT3-knockdown cell lines: HUDEP-2; for BGLT3 expression / β-globin expression / γ-globin expression: shctrl DMSO = 1, 3 replicates
# Description: as §1
# Retroviral infection was used as previously described to establish cell lines stably expressing BGLT3 and transfected with the pCX4-pur vector, as well as knockdown cell lines transfected with the pSUPER vector[58]. Briefly, retroviruses were produced by transfecting PLAT-E cells with pCX4-pur-BGLT3 or pSUPER-ctrl, pSUPER-BGLT3, or pSUPER-G9a using 5 μg/mL polyethylenimine MAX (PEI MAX, Polysciences). Two days after transfection, the culture supernatant was collected and filtered through a 0.45-μm filter (Millipore) and used for infection with 8 μg/mL polybrene (Sigma). Forty-eight hours after infection, the infected cells were selected with 0.2 μg/mL puromycin (InvivoGen). The clonal puromycin-resistant cells were established via limiting dilution. The desired clones were confirmed by western blotting or qPCR.
# [4] = biological target: T1, SMYD2 (Homo sapiens, UniProt Q9NRG4); assay: Radioisotope-based methyltransferase assay (selectivity); type: biochemical
# T1 construct: purchased Reaction Biology
# T1 sequence (Q9NRG4 whole entry): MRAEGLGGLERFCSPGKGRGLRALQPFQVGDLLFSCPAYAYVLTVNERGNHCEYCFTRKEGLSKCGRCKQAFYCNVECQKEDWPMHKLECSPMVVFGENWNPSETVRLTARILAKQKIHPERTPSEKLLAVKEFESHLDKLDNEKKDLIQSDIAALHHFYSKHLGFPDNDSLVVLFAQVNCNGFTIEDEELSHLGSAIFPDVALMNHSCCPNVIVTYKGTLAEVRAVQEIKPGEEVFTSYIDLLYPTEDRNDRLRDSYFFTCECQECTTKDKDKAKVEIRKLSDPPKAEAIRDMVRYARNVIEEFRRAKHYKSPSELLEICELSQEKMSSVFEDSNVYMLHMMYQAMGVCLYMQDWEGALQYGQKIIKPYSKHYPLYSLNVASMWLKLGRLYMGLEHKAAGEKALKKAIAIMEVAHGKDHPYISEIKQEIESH
# [5] = biological target: DNMT3b (Homo sapiens, UniProt Q9UBC3); assay: as above; conditions: 1 μM SAM
# [6] = biological target: T2, GLP (Homo sapiens, UniProt Q9H9B1); assay: as above
# T2 sequence (Q9H9B1 1-1298): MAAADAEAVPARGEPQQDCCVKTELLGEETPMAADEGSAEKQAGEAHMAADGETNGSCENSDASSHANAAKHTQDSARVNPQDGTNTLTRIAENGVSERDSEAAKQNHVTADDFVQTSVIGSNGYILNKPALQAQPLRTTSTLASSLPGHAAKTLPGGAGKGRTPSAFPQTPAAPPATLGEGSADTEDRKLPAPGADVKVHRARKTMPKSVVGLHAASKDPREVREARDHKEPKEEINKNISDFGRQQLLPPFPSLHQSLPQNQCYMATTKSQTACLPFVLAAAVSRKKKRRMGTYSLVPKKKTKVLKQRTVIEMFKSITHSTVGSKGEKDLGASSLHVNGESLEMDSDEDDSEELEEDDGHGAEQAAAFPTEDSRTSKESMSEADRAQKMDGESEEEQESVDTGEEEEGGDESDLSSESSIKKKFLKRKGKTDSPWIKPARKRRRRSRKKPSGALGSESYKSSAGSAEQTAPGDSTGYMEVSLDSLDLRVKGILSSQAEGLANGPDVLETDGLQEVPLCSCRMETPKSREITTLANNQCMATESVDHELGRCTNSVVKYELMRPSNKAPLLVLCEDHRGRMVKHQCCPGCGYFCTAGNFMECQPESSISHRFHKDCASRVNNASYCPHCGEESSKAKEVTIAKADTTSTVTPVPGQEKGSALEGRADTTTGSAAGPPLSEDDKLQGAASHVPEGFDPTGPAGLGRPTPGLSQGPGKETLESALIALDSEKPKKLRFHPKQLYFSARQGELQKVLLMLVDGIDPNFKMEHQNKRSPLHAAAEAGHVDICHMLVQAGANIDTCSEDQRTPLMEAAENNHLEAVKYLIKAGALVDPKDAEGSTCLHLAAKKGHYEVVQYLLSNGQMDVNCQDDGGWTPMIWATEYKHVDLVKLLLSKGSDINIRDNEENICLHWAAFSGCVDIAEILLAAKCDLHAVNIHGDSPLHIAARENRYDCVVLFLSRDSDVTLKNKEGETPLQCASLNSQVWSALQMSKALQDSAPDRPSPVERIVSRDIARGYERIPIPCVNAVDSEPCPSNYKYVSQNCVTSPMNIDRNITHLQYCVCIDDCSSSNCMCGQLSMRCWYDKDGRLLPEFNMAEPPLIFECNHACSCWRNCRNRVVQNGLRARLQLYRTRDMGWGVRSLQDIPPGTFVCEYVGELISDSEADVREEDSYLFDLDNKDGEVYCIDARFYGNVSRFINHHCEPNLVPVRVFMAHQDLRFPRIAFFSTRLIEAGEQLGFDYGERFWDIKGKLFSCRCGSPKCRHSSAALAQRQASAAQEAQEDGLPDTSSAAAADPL
# [7] = Parental cells, relative to Parental DMSO = 1, replicate values
# [8] = CD34+-derived cells, day 10, 10 μM
# [9] = shBGLT3#1 HUDEP-2 cells treated with hydroxyurea
# [10] = shBGLT3#2 HUDEP-2 cells treated with hydroxyurea
# [11] = shBGLT3#3 HUDEP-2 cells treated with hydroxyurea
# [12] = shctrl HUDEP-2 cells treated with hydroxyurea
# [13] = single agents or combination, relative to DMSO = 1, replicate values
structure (smiles),measurement,setting,value
"NC(=O)NO [Hydroxyurea, hydroxyurea]",β-globin in hydroxyurea-treated HUDEP-2 cells,[1]; [7],1.499 and 1.443 and 1.4392
same,γ-globin in hydroxyurea-treated HUDEP-2 cells,[1]; [7],3.312 and 3.051 and 3.256
same,Relative expression of β-globin mRNA,[2]; [8],1.124 and 0.7862 and 0.5724
same,Relative expression of γ-globin mRNA,[2]; [8],2.644 and 2.524 and 1.672
same,induction of γ-globin in BGLT3-knockdown cell lines,[3],significantly suppressed by BGLT3 knockdown
same,BGLT3 expression,[3]; [9],0.1509 and 0.1371 and 0.1512
same,β-globin expression,[3]; [9],1.466 and 1.446 and 1.721
same,γ-globin expression,[3]; [9],0.1913 and 0.1897 and 0.2071
same,BGLT3 expression,[3]; [10],0.4826 and 0.5314 and 0.5646
same,β-globin expression,[3]; [10],1.233 and 1.155 and 1.519
same,γ-globin expression,[3]; [10],0.3698 and 0.274 and 0.2235
same,BGLT3 expression,[3]; [11],0.2947 and 0.3306 and 0.3028
same,β-globin expression,[3]; [11],1.946 and 1.495 and 2.515
same,γ-globin expression,[3]; [11],0.4324 and 0.5055 and 0.5513
same,BGLT3 expression,[3]; [12],2.21 and 1.619 and 1.809
same,β-globin expression,[3]; [12],1.158 and 0.7746 and 0.9701
same,γ-globin expression,[3]; [12],2.343 and 1.97 and 1.753
Cc1c(C(=O)NC(CCC2CC2)C(=O)Nc2ccc(C#N)cc2)[nH]c2c1C(=O)CC(C)(C)C2 (stereo not drawn) [RK-701],IC50,"[4]; SMYD2, 1 μM SAM",> 100 µM
same,IC50,"[4]; SMYD2, RK-701 in duplicate",> 100 µM
same,γ-globin mRNA level,[1]; HUDEP-2,upregulated
same,β-globin expression in HUDEP-2 cells treated with RK-701 and decitabine,[1]; [13],1.116 and 1.192 and 1.151
same,γ-globin expression in HUDEP-2 cells treated with RK-701 and decitabine,[1]; [13],2.225 and 1.925 and 1.787
same,γ-globin mRNA expression,[2]; primary human CD34+ hematopoietic cells,significantly increased
same,induction of γ-globin in BGLT3-knockdown cell lines,[3],almost completely abolished
same,IC50,[5],> 100 µM
same,IC50,[6],0.053 µM
"Nc1ncnc2c1ncn2[C@@H]1O[C@H](CSCC[C@H](N)C(=O)O)[C@@H](O)[C@H]1O [SAH, S-(5'-Adenosyl)-L-homocysteine, reference compound]",IC50,"[4]; SMYD2, 1 μM SAM",1.9 µM
same,IC50,"[4]; SMYD2, RK-701 in duplicate",1.91 µM
same,IC50,[5],0.11 µM
same,IC50,[6]; 1 μM SAM,3.86 µM
